These results are taken from patent US5691319A, “Pyrimidine nucleoside derivatives having anti-tumor activity, their preparation and use” (Sankyo Company, Limited, priority 1991, dated 1997).

One test has as its system mouse fibrosarcoma M5076. Description: Anti-tumor activity against M5076 fibrosarcoma (sc implanted, BDF1 mice). It is filed as in vivo. The following applies: days 1, 4, 7, 10, 13 and 16; for 60 day survivors optimal dose / growth inhibition (%) optimal dose: oral; for 60 day survivors optimal dose: survivors/mice; for growth inhibition (%) optimal dose / growth inhibition (%) optimal dose/4: tumor size on twentieth day; for growth inhibition (%) optimal dose/4: optimal dose/4, oral. The method, then:
The test animals used were female mice, 8-10 weeks old, of the BDF1 strain, weighing 20-25 g. The mice were purchased from Charles River Japan Inc., Kanagawa Japan. The mice were divided into experimental groups, each group containing 6 mice, and all mice within each group were treated identically. Each mouse was inoculated subcutaneously with 1×10^6 viable cells (the number of cells was measured by a dye exclusion method under microscopy) of the mouse fibrosarcoma M5076.
The test compounds listed in the following Table were dissolved in 0.2 ml of N,N-dimethylacetamide and the solution was mixed with 10% Emulphor (trade mark)-physiological saline on an agate mortar. The final concentration of N,N-dimethylacetamide was 5% v/v. The solution was administered orally on the first, fourth, seventh, tenth, thirteenth and sixteenth days following inoculation of the fibrosarcoma cells. The period for which the mice survived and the % inhibition of tumor growth were determined. A control group was not treated.
The anti-tumor effect is shown in the following Table 4 as the percent growth inhibition [GI (%)], calculated from the following equations [R. I. Geran et al., Cancer Chemother. Rept., 3 (1972)]:
TDt=average value of tumor sizes on the twentieth day in the treated group; and
TDc=average value of tumor sizes on the twentieth day in the control group;
tumor size=(tumor length+tumor width)/2.

The next test concerns p-388 leukemia. Description: Anti-tumor activity against p-388 leukemia (ip implanted, CDF1 mice). It is filed as in vivo. The settings on record: for ILS (%) (increase in life span): days 1, 5 and 9; for 30 days survivors: days 1, 5 and 9, survivors/mice. The method, then:
The test animals employed were female mice, 8 weeks of age, of the CDF1 strain, each weighing 21-25 g. The mice were divided into groups. each of 5 mice, and all mice within the group were treated identically. Into each mouse was implanted intraperitoneally 1×10^6 cells of the leukemia p-388.
The test compounds 1-9, 1-11, 1-15, 1-31 and 1-62 were dissolved in 0.2 ml of N,N-dimethylacetamide and the solution was mixed with 10% Emulphor (trade mark)-physiological saline on an agate mortar. Test compounds 1-34 and 1-41 were dissolved in a small amount of Tween 80 (registered trade mark) and immediately thereafter physiological saline was added to the solution form a suspension. The suspension was administered intraperitoneally on the first, fifth and ninth days following implantation of the leukemia cells. The period for which the mice survived was determined. A control group was treated identically, except that no active compound was administered.
The anti-tumor effect is shown in the following Table 3 as the increase in life span [ILS (%)], calculated from the following equation [R. I. Geran et al, Cancer Chemother. Rept., 3 (1972)]:
Dt=average number of days survival by the test group; and
Dc=average number of days survival by the control group.
In this test Dc was 9-10 days.

Each structure is given as a SMILES string.

Consider `CCCCCC(=O)Nc1ccn([C@@H]2O[C@H](CO)[C@@H](O)[C@@H]2C#N)c(=O)n1` [Compound 1-1, 2'-Cyano-2'-deoxy-N^4-hexanoyl-1-β-D-arabinofuranosylcytosine], for which, in the test with mouse fibrosarcoma M5076, the “60 day survivors optimal dose” value is given as 4/6, the “growth inhibition (%) optimal dose” value worked out at 97.7% and the “growth inhibition (%) optimal dose/4” value was found to be 61.1%.

For the molecule `CCCCCCCCCCCCCCCCCCCC(=O)Nc1ccn([C@@H]2O[C@H](CO)[C@@H](O)[C@@H]2C#N)c(=O)n1` [Compound 1-15, 2'-Cyano-2'-deoxy-N^4-icosanoyl-1-β-D-arabinofuranosylcytosine], in the test with p-388 leukemia (dose 100 mg/kg), the “ILS (%) (increase in life span)” value is 202% and the 30 days survivors is given as 0/5. Also, in the test on mouse fibrosarcoma M5076, the “60 day survivors optimal dose” value is 5/6, the “growth inhibition (%) optimal dose” value was found to be 96.5% and the “growth inhibition (%) optimal dose/4” value was found to be 88.7%.

For the molecule `CCCCCCCCCCCCCC(=O)Nc1ccn([C@@H]2O[C@H](CO)[C@@H](O)[C@@H]2C#N)c(=O)n1` [Compound 1-9, 2'-Cyano-2'-deoxy-N^4-tetradecanoyl-1-β-D-arabinofuranosylcytosine], in the test with p-388 leukemia (dose 200 mg/kg), the “ILS (%) (increase in life span)” value is on record as > 200% and the 30 days survivors is 4/5. In the test with mouse fibrosarcoma M5076, the “60 day survivors optimal dose” value is on record as 5/6, the “growth inhibition (%) optimal dose” value is listed as 97.3% and the “growth inhibition (%) optimal dose/4” value came out at 79.1%.

As to `COCOCCCCCCCCCC(=O)Nc1ccn([C@@H]2O[C@H](CO)[C@@H](O)[C@@H]2C#N)c(=O)n1` [Compound 1-31, 2'-Cyano-2'-deoxy-N^4-(10-methoxymethoxydecanoyl)-1-β-D-arabinofuranosylcytosine], in the test on p-388 leukemia (dose 200 mg/kg), the “ILS (%) (increase in life span)” value was 152% and the 30 days survivors is 0/5.

In the case of `CCCCCCCCCCCCCCCCCC(=O)Nc1ccn([C@@H]2O[C@H](CO)[C@@H](O)[C@@H]2C#N)c(=O)n1` [Compound 1-13, 2'-Cyano-2'-deoxy-N^4-stearoyl-1-β-D-arabinofuranosylcytosine], in the test with mouse fibrosarcoma M5076, the “60 day survivors optimal dose” value was 4/6, the “growth inhibition (%) optimal dose” value amounted to 98.1% and the “growth inhibition (%) optimal dose/4” value is on record as 88.9%.

`COCCOCOCCCCCCCCCCCCCCCC(=O)Nc1ccn([C@@H]2O[C@H](CO)[C@@H](O)[C@@H]2C#N)c(=O)n1` [Compound 1-41, 2'-Cyano-2'-deoxy-N^4-(16-methoxyethoxymethoxyhexadecanoyl)-1-β-D-arabinofuranosylcytosine]: in the test with p-388 leukemia (dose 100 mg/kg), the “ILS (%) (increase in life span)” value was 159% and the 30 days survivors is given as 2/5. In the test with mouse fibrosarcoma M5076, the “60 day survivors optimal dose” value is 5/6, the “growth inhibition (%) optimal dose” value worked out at 99.2% and the “growth inhibition (%) optimal dose/4” value came to 76.2%.

Take `CCCCCCCCCC(=O)Nc1ccn([C@@H]2O[C@H](CO)[C@@H](O)[C@@H]2C#N)c(=O)n1` [Compound 1-5, 2'-Cyano-N^4-decanoyl-2'-deoxy-1-β-D-arabinofuranosylcytosine]: in the test on mouse fibrosarcoma M5076, the “60 day survivors optimal dose” value was 3/6, the “growth inhibition (%) optimal dose” value was found to be 93.0% and the “growth inhibition (%) optimal dose/4” value is recorded as 70.4%.

Consider `CCCCCCCCCCCCCCCC(=O)Nc1ccn([C@@H]2O[C@H](CO)[C@@H](O)[C@@H]2C#N)c(=O)n1` [Compound 1-11, 2'-Cyano-2'-deoxy-N^4-palmitoyl-1-β-D-arabinofuranosylcytosine], for which, in the test with p-388 leukemia (dose 50 mg/kg), the “ILS (%) (increase in life span)” value is on record as 189% and the 30 days survivors was 2/5. In the test on mouse fibrosarcoma M5076, the “60 day survivors optimal dose” value is recorded as 5/6, the “growth inhibition (%) optimal dose” value is 99.2% and the “growth inhibition (%) optimal dose/4” value turned out to be 90.2%.

For `COCOCCCCCCCCCCCCCCCC(=O)Nc1ccn([C@@H]2O[C@H](CO)[C@@H](O)[C@@H]2C#N)c(=O)n1` [Compound 1-34, 2'-Cyano-2'-deoxy-N^4-(16-methoxymethoxyhexadecanoyl)-1-β-D-arabinofuranosylcytosine], in the test on p-388 leukemia (dose 100 mg/kg), the “ILS (%) (increase in life span)” value was > 195% and the 30 days survivors is reported as 3/5. Also, in the test on mouse fibrosarcoma M5076, the “60 day survivors optimal dose” value is 5/6, the “growth inhibition (%) optimal dose” value was determined as 96.0% and the “growth inhibition (%) optimal dose/4” value is 87.2%.

On to `N#CCCCCCCCCCCC(=O)Nc1ccn([C@@H]2O[C@H](CO)[C@@H](O)[C@@H]2C#N)c(=O)n1` [Compound 1-62, 2'-Cyano-N^4-(11-cyanoundecanoyl)-2'-deoxy-1-β-D-arabinofuranosylcytosine], for which, in the test on p-388 leukemia (dose 200 mg/kg), the “ILS (%) (increase in life span)” value amounted to 159% and the 30 days survivors is 0/5. Further, in the test on mouse fibrosarcoma M5076, the “60 day survivors optimal dose” value is 6/6, the “growth inhibition (%) optimal dose” value worked out at 99.0% and the “growth inhibition (%) optimal dose/4” value was found to be 83.3%.
